Columns and labels:
[1] = Body weight change in CIDP animal model (S-palmP0(180-199)); format: in vivo, Lewis rats
Protocol: (§1) Specifically, male Lewis rats (7 weeks old) were obtained and acclimatized for one week. Thereafter, solution A was prepared by dissolving s-palm PO, in which palmitic acid is conjugated to cysteine at the 181st amino acid of peripheral myelin PO protein described in <Example 2>, in saline at a concentration of 2 mg/mL. Solution B was prepared by dissolving Mycobacterium tuberculosis in Freund's adjuvant at a concentration of 5 mg/mL. A sterile 25 mL tube was placed in an ice box, and solutions A and B were mixed at a ratio of 1:1 and homogenized for 15 minutes using a homogenizer to prepare an emulsion. The emulsion (200 μL) was then administered by subcutaneous injection at the base of the rat tail to induce the disease. […] The KINE-101 administration groups received KINE-101 dissolved in DPBS at doses of 6.25, 12.5, 25, and 37.5 mg/kg by intravenous injection (I.V.) three times per week for 15 days, starting the day after disease induction. The IVIg administration group received IVIg at a dose of 400 mg/kg once daily for 5 days starting the day after disease induction. The experiment was terminated on day 15 after disease induction.
Specifically, body weight was measured during administration of KINE-101 or IVIg by the method described in Example <3-1>, and the change in body weight was calculated relative to the body weight before disease induction (Day 0).

[2] = test system: CIDP animal model; test: Nerve conduction studies (MNCV, CMAP, SNCV, SNAP) in CIDP animal model; format: in vivo, Lewis rats
Protocol: as §1
(§2) Specifically, KINE-101 or IVIg was administered by the method described in Example <3-1>, and after completion of the experiment, the animals were anesthetized with 1.5% isoflurane and examined. The fur from the distal region of the hind limb to the upper region was removed, and nerve conduction studies for measuring motor and sensory nerves were performed using a Nicolet VikingQuest device as the electrophysiological examination instrument. For the nerve conduction study, a needle electrode was placed on the motor nerve or sensory nerve, and a reference electrode was placed on the gastrocnemius muscle. The stimulating cathode was positioned in the middle of the posterior thigh near the recording electrode, and stimulation was applied at both distal and proximal sites. Motor nerve conduction velocity (MNCV) and compound muscle action potential (CMAP) of the motor nerve, as well as sensory nerve conduction velocity (SNCV) and sensory nerve action potential (SNAP) of the sensory nerve, were measured.

[3] = test system: acquired peripheral nerve injury animal model; test: Nerve conduction studies in acquired peripheral nerve injury animal model; format: in vivo, C57BL/6 mice
Protocol: as §2
(§3) Specifically, a uniform nerve injury model can be obtained by damaging the nerve emerging from the spinal cord at a predetermined intensity for a certain period of time, and since both the intensity and duration can be controlled, it is possible to establish a nerve injury model that persists for a desired period. For the disease induction groups, the boundary region between the gluteal muscle and the femoral muscle of the mouse was incised to expose the sciatic nerve. The nerve was then grasped and injured for a predetermined period using a surgical tool (MacJam) at one of three intensities (stages 1, 2, or 3; stage 3 for 3 seconds was used as the reference), after which the incision was sutured to establish an acquired peripheral nerve injury animal model. From the day following disease induction, KINE-101 dissolved in DPBS was administered intravenously (I.V.) at doses of 10, 50, and 100 mg/kg three times per week for a total of four weeks.
Specifically, mice were anesthetized with 1.5% isoflurane at weeks 0, 3, and 6 after administration of KINE-101 according to the method described in Example <4-1>, and MNCV, CMAP, SNCV, and SNAP were measured by the same method described in Example <3-4> to determine whether motor nerves and sensory nerves were damaged.

[4] = test system: chronic inflammatory demyelinating polyneuropathy (CIDP) animal model; test: Demyelination in peripheral nerve tissues (TEM), CIDP animal model; format: in vivo, Lewis rats; settings: KINE-101 50 mg/kg I.V.; hind limb peripheral nerve
Protocol: Female Lewis rats (7 weeks old) were obtained and acclimatized for one week. Thereafter, solution A was prepared by dissolving peripheral myelin PO protein (180-199) in 0.9% saline at a concentration of […], and solution B was prepared by dissolving Mycobacterium tuberculosis in Freund's incomplete adjuvant at a concentration of […]. A sterile 50 ml tube was placed in an ice box, and solutions A and B were mixed at a ratio of 1:1. The mixture was then homogenized using a homogenizer for 15 minutes to prepare an emulsion. The prepared emulsion was loaded into a 1 ml syringe, the syringe needle was replaced with a 25G needle, and the syringe was stored in an ice box containing ice until use. The emulsion (200 μL) was subcutaneously (S.C.) injected into the tail of the Lewis rats to induce the disease. […] From the day following disease induction, KINE-101 dissolved in DPBS was intravenously (I.V.) administered three times per week at doses of 1, 5, 25, and 50 mg/kg.
Tissue cross-sections were then observed using a transmission electron microscope (TEM) to evaluate the degree of myelin loss. In addition, comparisons were made with the normal group (Normal) and the CIDP-induced group (EAN PO (180-199)).

[5] = test system: acquired peripheral nerve injury animal model; test: Histopathological examination of nerve tissues (toluidine blue, TEM), acquired peripheral nerve injury animal model; format: in vivo, C57BL/6 mice; settings: for myelinated axons and unmyelinated fibers: vs acquired peripheral nerve injury group
From the text: as §3
Specifically, KINE-101 was administered to the acquired peripheral nerve injury animal model for four weeks according to the method described in Example <4-1>, and the experimental animals were sacrificed six weeks after the start of administration. Thereafter, peripheral nerve tissues of the hind limbs were isolated and fixed in a 4% paraformaldehyde solution containing 2.5% glutaraldehyde. After ethanol dehydration, the tissues were embedded in epoxy resin and semi-thin sections (1 μm) were prepared. The semi-thin sections were stained with toluidine blue for 5-10 seconds and observed under a light microscope. In addition, ultra-thin sections (65 nm) were prepared, and tissue cross-sections were observed using a transmission electron microscope (TEM) to examine abnormalities of myelin (demyelination, dysmyelination, and hypermyelination).

[6] = test system: CIDP animal model; test: Clinical score in CIDP animal model (S-palmP0(180-199)), KINE-101 vs IVIg; format: in vivo, Lewis rats
[7] = test system: acquired peripheral nerve injury animal model; test: Rotarod test in acquired peripheral nerve injury animal model; format: in vivo, C57BL/6 mice; settings: weeks 3 and 6; all KINE-101-treated groups (10, 50, 100 mg/kg); vs Injury Ctr
From the text: as §3, with “From the day following disease induction, KINE-101 dissolved in DPBS was administered intravenously (I.V.) at doses of 10, 50, and 100 mg/kg three times per week for a total of four weeks.” left out
Demyelinating diseases are known to be accompanied by symptoms such as muscle weakness and impaired balance. […] Specifically, the phenotype of the experimental animals was analyzed using rotarod, grip strength, and tail suspension tests. […] Using a rotarod apparatus (ROTA ROD, LE8205, Panlab), the time during which the animal remained on the rotating rod was measured for 2 minutes and 30 seconds at a fixed speed of 8 rpm. For each evaluation, three trials were conducted, and the maximum duration among the trials was analyzed.

[8] = test system: Treg cells; test: Treg cell proportion and activation in lymph nodes at nerve injury site (flow cytometry); format: in vivo, C57BL/6 mice
From the text: as §3
Specifically, KINE-101 was administered to the acquired peripheral nerve injury animal model for four weeks according to the method described in Example <4-1>, and the experimental animals were sacrificed six weeks after the start of administration. Thereafter, immune cells were isolated from the lymph nodes at the nerve injury site of the experimental animals. The isolated immune cells were subjected to fluorescent staining for CD4 and Foxp3 proteins, and the proportion of Treg cells among CD4 T cells was determined by flow cytometry. In addition, fluorescent staining for the CTLA4 protein, which is an activation marker of Treg cells, was performed, and the level of CTLA4 expression in Treg cells was compared by flow cytometric analysis to evaluate the degree of activation.

[9] = test system: chronic inflammatory demyelinating polyneuropathy (CIDP) animal model; test: Clinical score in CIDP animal model (EAN P0(180-199)); format: in vivo, Lewis rats
Protocol: Female Lewis rats (7 weeks old) were obtained and acclimatized for one week. Thereafter, solution A was prepared by dissolving peripheral myelin PO protein (180-199) in 0.9% saline at a concentration of […], and solution B was prepared by dissolving Mycobacterium tuberculosis in Freund's incomplete adjuvant at a concentration of […]. A sterile 50 ml tube was placed in an ice box, and solutions A and B were mixed at a ratio of 1:1. The mixture was then homogenized using a homogenizer for 15 minutes to prepare an emulsion. The prepared emulsion was loaded into a 1 ml syringe, the syringe needle was replaced with a 25G needle, and the syringe was stored in an ice box containing ice until use. The emulsion (200 μL) was subcutaneously (S.C.) injected into the tail of the Lewis rats to induce the disease. […]
In order to examine the progression of CIDP following administration of KINE-101, the severity of CIDP over time after administration of KINE-101 to the CIDP animal model was evaluated and measured using a clinical score.
Specifically, during administration of KINE-101 by the method described in Example <2-1>, the symptoms were evaluated on a scale of 0 to 5 according to the criteria shown in Table 3 below. […] The severity of CIDP was quantified by calculating the average value of the results evaluated for each individual.

[10] = all KINE-101-treated groups (6.25-37.5 mg/kg I.V.), after day 15
[11] = all KINE-101-treated groups, IVIg 400 mg/kg
[12] = week 3, KINE-101 10 mg/kg I.V. three times per week for four weeks
[13] = week 3, KINE-101 50 mg/kg I.V. three times per week for four weeks
[14] = week 6, KINE-101 50 mg/kg I.V. three times per week for four weeks
[15] = weeks 3 and 6, KINE-101-treated groups (10, 50, 100 mg/kg)

In the case of “PSPPSPPSP [KINE-101, trimeric polymer prepared using a PSP fragment (PSP monomer)]”, the “body weight improvement effect” value ([1]; KINE-101 12.5 mg/kg I.V.) is reported as “most pronounced body weight improvement effect”, the “body weight gain vs negative control group” value ([1]; KINE-101-treated groups (6.25-37.5 mg/kg I.V.)) is reported as “greater body weight gain compared with the negative control group” and the “body weight vs before disease induction (Day 0)” value ([1]; KINE-101-treated groups, day 15 after disease induction) is reported as “maintained significantly higher body weight than that before disease induction”. For the same sequence, the “MNCV and CMAP” value ([2]; KINE-101 12.5 mg/kg I.V.) was “most pronounced effect”, the “SNCV and SNAP” value ([2]; KINE-101 12.5 mg/kg I.V.) was “most pronounced effect” and the “compound muscle action potential (CMAP)” value [2, 10] was “higher MNCV and CMAP values compared with the negative control group”. For the same sequence, the “motor nerve conduction velocity (MNCV)” value [2, 10] was “higher MNCV and CMAP values compared with the negative control group”, the “sensory nerve action potential (SNAP)” value [2, 10] was “higher SNCV and SNAP values compared with the negative control group” and the “sensory nerve conduction velocity (SNCV)” value [2, 10] was “higher SNCV and SNAP values compared with the negative control group”. For the same sequence, the “MNCV and CMAP vs IVIg-treated group” value [2, 11] was “effects similar to or superior to those of the IVIg-treated group”, the “SNCV and SNAP vs IVIg-treated group” value [2, 11] was “effects similar to those of the IVIg-treated group” and the CMAP [3, 12] was 11.0±2.3 mV. For the same sequence, the SNCV [3, 12] was 27.7±2.8 m/s, the MNCV [3, 13] was 46.7±7.4 m/s and the SNAP [3, 13] was 11.2±3.1 μV. It also gave an SNCV [3, 13] of 27.6±2.2 m/s, an SNCV ([3]; week 3, KINE-101 100 mg/kg I.V. three times per week for four weeks) of 28.6±3.7 m/s and a CMAP [3, 14] of 32.9±4.0 mV. The MNCV [3, 14] was 63.9±7.6 m/s, the SNAP [3, 14] was 12.3±2.9 μV and the SNCV [3, 14] was 27.9±3.1 m/s. The MNCV ([3]; week 6, KINE-101 100 mg/kg I.V. three times per week for four weeks) was 59.0±4.5 m/s, the MNCV ([3]; week 6, KINE-101-treated groups (10, 50, 100 mg/kg)) was “increased” and the CMAP [3, 15] was “increased compared with those in the acquired peripheral nerve injury group”. For the same sequence, the SNAP [3, 15] was “increased compared with those in the acquired peripheral nerve injury group”, the “demyelination (degree of myelin loss, TEM)” value [4] was “demyelination was suppressed similarly to that observed in the normal group” and the “myelinated axons and unmyelinated fibers” value ([5]; KINE-101 50 mg/kg) was “marked increase in myelinated axons and a decrease in unmyelinated fibers”. The “myelinated axons and unmyelinated fibers” value ([5]; KINE-101 100 mg/kg) was “marked increase in myelinated axons and a decrease in unmyelinated fibers”, the myelination ([5]; KINE-101-treated groups (10, 50, 100 mg/kg), six weeks after start of administration, vs Injury Ctr) was “improved myelination” and the “number of large myelinated fibers and small unmyelinated fibers” value ([5]; KINE-101-treated groups, six weeks after start of administration) was “an increase in the number of large myelinated fibers and a decrease in the number of small unmyelinated fibers”. For the same sequence, the clinical score ([6]; KINE-101 25 mg/kg I.V. three times per week) was “lowest clinical score”, the clinical score ([6]; all KINE-101-treated groups (6.25 mg/kg to 37.5 mg/kg I.V. three times per week), day 15 after disease induction) was “lower clinical scores on day 15 after disease induction compared with the negative control group” and the “muscle strength and balance (rotarod)” value [7] was “improved muscle strength and balance”. For the same sequence, the “CTLA4 expression in Treg cells (activation marker)” value ([8]; KINE-101 50 mg/kg) was “increased to a statistically significant level”, the “proportion of Treg cells among CD4 T cells in lymph nodes at nerve injury site” value ([8]; KINE-101 50 mg/kg) was “increased to a statistically significant level” and the “CTLA4 expression in Treg cells (activation marker)” value ([8]; KINE-101-treated groups (10, 50, 100 mg/kg)) was “increased”. For the same sequence, the “proportion of Treg cells among CD4 T cells in lymph nodes at nerve injury site” value ([8]; KINE-101-treated groups (10, 50, 100 mg/kg), six weeks after start of administration) was “increased”, the clinical score ([9]; KINE-101 50 mg/kg I.V. three times per week) was “lowest clinical score” and the “clinical score (CIDP symptoms)” value ([9]; all KINE-101-treated groups (1, 5, 25, 50 mg/kg I.V. three times per week), vs CIDP-induced group) was “alleviation of symptoms after day 15”.
